Laboratory results published in article PMC10795023, “Structural Optimization and Biological Evaluation of Isoxazolo[5,4-d]pyrimidines as Selective Toll-Like Receptor 7 Agonists” (ACS Omega, 2024).
“Also recorded” adds a separate entry of the source.

Key:
[1] = test system: HEK293 cell line cotransfected with the hTLR7 gene; test: Cytotoxicity, MTS cell proliferation assay; format: cell-based, human; conditions: 24 h
Procedure: The cytotoxicity of the compounds was determined by the MTS assay at concentrations of 150, 50, and 10 μM on the HEK293 cell line cotransfected with the hTLR7 gene (Figure 3).
The cytotoxicity of the compounds was determined using the MTS cell proliferation assay (CellTiter 96 AQueous One Solution Cell Proliferation Assay, Promega, Wisconsin, USA), according to the manufacturer's protocol on the HEK293 cell line, cotransfected with the hTLR7 gene (InVivoGen). Cells were seeded in 96-well plates (1.5 × 10^4 cells/well). After 24 h incubation at 5% CO2 and 37 °C, the cells were treated either with DMSO (negative control) or with solutions of the tested compounds in DMSO. After 24 h, MTS reagent (CellTiter 96 AQueous One Solution Cell Proliferation Assay, Promega, Wisconsin, USA) was added. Cells were incubated for another 2 h, and then absorbance was measured at 490 nm.

hTLR7 = target: T1, hTLR7 (Homo sapiens, UniProt Q9NYK1); test: TLR7 agonist activity, HEK293 hTLR7 SEAP reporter assay; format: cell-based; conditions: HEK293 cotransfected with hTLR7 and inducible SEAP reporter gene, 24 h treatment; average ± SD of three independent replicates; n.a. = not active; read-out: EC50
T1 construct: host or cells: HEK293
T1 sequence (Q9NYK1 27-1049): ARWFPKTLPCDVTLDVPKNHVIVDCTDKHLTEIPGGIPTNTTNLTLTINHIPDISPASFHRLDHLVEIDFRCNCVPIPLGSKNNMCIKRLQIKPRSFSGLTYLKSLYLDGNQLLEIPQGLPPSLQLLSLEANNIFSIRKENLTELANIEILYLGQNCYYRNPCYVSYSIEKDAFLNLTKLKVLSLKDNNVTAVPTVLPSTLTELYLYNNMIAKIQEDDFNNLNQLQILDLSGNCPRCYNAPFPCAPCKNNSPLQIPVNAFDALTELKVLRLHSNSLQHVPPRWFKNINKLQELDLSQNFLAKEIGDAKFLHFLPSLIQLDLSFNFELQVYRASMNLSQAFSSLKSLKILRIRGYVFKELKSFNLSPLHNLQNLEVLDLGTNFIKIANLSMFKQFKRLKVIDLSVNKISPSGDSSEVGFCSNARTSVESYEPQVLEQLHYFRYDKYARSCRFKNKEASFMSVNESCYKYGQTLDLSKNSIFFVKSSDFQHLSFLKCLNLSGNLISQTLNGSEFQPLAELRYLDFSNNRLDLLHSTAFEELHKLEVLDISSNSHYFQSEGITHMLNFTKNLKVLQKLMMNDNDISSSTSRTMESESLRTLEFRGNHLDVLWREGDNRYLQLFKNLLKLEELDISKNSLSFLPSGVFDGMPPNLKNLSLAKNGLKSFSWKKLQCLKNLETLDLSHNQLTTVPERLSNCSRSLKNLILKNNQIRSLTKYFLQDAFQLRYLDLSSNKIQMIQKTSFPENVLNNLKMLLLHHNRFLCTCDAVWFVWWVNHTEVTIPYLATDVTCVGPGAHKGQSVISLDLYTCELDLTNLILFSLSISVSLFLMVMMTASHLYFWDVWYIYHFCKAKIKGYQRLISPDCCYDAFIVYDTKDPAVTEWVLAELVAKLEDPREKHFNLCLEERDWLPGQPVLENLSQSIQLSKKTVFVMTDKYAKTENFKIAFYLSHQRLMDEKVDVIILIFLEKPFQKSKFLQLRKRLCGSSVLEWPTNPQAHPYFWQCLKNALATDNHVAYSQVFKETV
Procedure: TLR7 agonist activities were determined using the HEK293 cell line, which was cotransfected with the hTLR7 gene and an inducible SEAP reporter gene (InvivoGen, San Diego, California, USA) as described previously.[34] Briefly, cells were seeded in 96-well plates (3 × 10^4 cells/well) and incubated at 5% CO2 and 37 °C. After 24 h, the cells were treated with the solutions of the compounds in DMSO. Imiquimod was used as a PC. The cells were incubated again for 24 h under the same conditions. The activity of SEAP in the supernatant of the cells was measured using the QUANTI-Blue reagent (InvivoGen, San Diego, California, USA), according to the manufacturer's protocol. EC50 values were determined using GraphPad Prism 9.2.0. software (San Diego, California, USA) using the nonlinear regression curve fit and four-parameter logistic equation. All experiments were performed in three independent biological replicates. Values are given as averages from the independent measurements with standard deviations calculated.

[2] = test system: human peripheral blood mononuclear cells (PBMCs); test: Cytokine secretion in PBMCs, cytometric bead array; format: cell-based; conditions: 24 h; for IL-6 concentration / IL-8 secretion / IL-10 concentration / IL-12p70 secretion / TNF-α secretion / IL-1β secretion: 21a 62.5 and 12.5 μM, 24a 125 and 25 μM
Procedure: PBMCs were seeded on a 24-well plate and treated with compounds 21a (62.5 μM (21a (1)) and 12.5 μM (21a (2))) and 24a (125 μM (24a (1)) and 25 μM (24a (2))). For a positive control (PC), imiquimod (1) was used (final concentration is 10 μg/mL) and the negative control were cells treated with DMSO. […] The BD Human Cytometric Bead Array (BD Biosciences, California, USA) was used to assay the protein levels of IL-1β, IL-6, IL-8, IL-10, IL-12p70, and TNF-α in the cell culture supernatant, according to the manufacturer’s protocol (BD Biosciences). PBMCs were isolated from buffy coats obtained at the Blood Transfusion Centre of Slovenia. Cells were seeded into 24-well plates (5 × 10^5 cells/well in […] of RPMI medium, Sigma-Aldrich, St. Louis, Missouri, USA) and treated with the selected TLR7 agonist. For a PC, imiquimod was used (final concentration is 10 μg/mL) and the negative control were cells treated with DMSO. Cells were centrifuged after 24 h incubation at 5% CO2 and 37 °C, and cell culture supernatants were used for further analysis. In an assay tube, […] of the Capture Beads, […] of the Detection Reagent, and […] of sample (fivefold dilution) were mixed and incubated for 3 h at room temperature and protected from light. Samples were then washed with 1 mL of wash buffer and centrifuged at 200g for 5 min. The supernatant was carefully aspirated and discarded from each assay tube. The bead pellet was resuspended by adding […] of wash buffer. Flow cytometry was performed using a FACSCalibur system (Becton Dickinson, Inc., New Jersey, USA). A standard curve was prepared by serial dilutions of standards and used for determination of cytokine concentrations in supernatants.

CC1CCCN(c2nc(C(F)(F)F)nc3onc(C4CCNCC4)c23)C1.Cl (stereo not drawn) [Compound 25a, 4-(4-(3-Methylpiperidin-1-yl)-6-(trifluoromethyl)isoxazolo[5,4-d]pyrimidin-3-yl)piperidin-1-ium chloride] was tested, and the “cytotoxicity (cell viability)” value ([1]; 150 μM) was “highly cytotoxic”.
With CC1CCCN(c2nc(C(F)(F)F)nc3onc(C4CC4)c23)C1 (stereo not drawn) [Compound 24a, 3-Cyclopropyl-4-(3-methylpiperidin-1-yl)-6-(trifluoromethyl)isoxazolo[5,4-d]pyrimidine] the EC50 (hTLR7) was 25.3 ± 3.5 µM, the IL-6 concentration [2] was “did not increase significantly” and the IL-8 secretion [2] was “induced the secretion”. The IL-10 concentration [2] was “did not increase significantly”, the IL-12p70 secretion [2] was “induced the secretion” and the TNF-α secretion [2] was “induced the secretion”. For the same compound, the IL-1β secretion ([2]; imiquimod 10 μg/mL) was “induced the secretion”.
In the case of CC(C)Cn1cnc2c(N)nc3ccccc3c21 [imiquimod, reference compound], the IL-1β secretion ([2]; imiquimod 10 μg/mL) is reported as “stimulated the release”.
With CC1CCCN(c2nc(C(F)(F)F)nc3onc(-c4ccc(F)cc4)c23)C1 (stereo not drawn) [Compound 21a, 3-(4-Fluorophenyl)-4-(3-methylpiperidin-1-yl)-6-(trifluoromethyl)isoxazolo[5,4-d]pyrimidine] the EC50 (hTLR7) was 7.8 ± 0.1 µM, the “cytotoxicity (cell viability)” value ([1]; 150, 50 and 10 μM) was “noncytotoxic; also recorded: no cytotoxic effects” and the IL-6 concentration [2] was “did not increase significantly”. For the same compound, the IL-8 secretion [2] was “induced the secretion”, the IL-10 concentration [2] was “did not increase significantly” and the IL-12p70 secretion [2] was “induced the secretion”. The TNF-α secretion [2] was “induced the secretion”, the IL-1β secretion ([2]; imiquimod 10 μg/mL) was “induced the secretion” and the “induction of TNF-α secretion in comparison to 1 (imiquimod)” value ([2]; 21a at 62.5 μM, imiquimod 10 μg/mL) was “higher induction”.
In the case of CC(C)CNc1nc(C(F)(F)F)nc2onc(C3CCNCC3)c12.Cl [Compound 25b, 4-(4-(Isobutylamino)-6-(trifluoromethyl)isoxazolo[5,4-d]pyrimidin-3-yl)piperidin-1-ium chloride], the “cytotoxicity (cell viability)” value ([1]; 150 μM) is reported as “highly cytotoxic”.
Cl.Fc1ccc(-c2noc3nc(C(F)(F)F)nc(N4CCNCC4)c23)cc1 [Compound 21i, 4-(3-(4-Fluorophenyl)-6-(trifluoromethyl)isoxazolo[5,4-d]pyrimidin-4-yl)piperazin-1-ium chloride] was tested, and the “cytotoxicity (cell viability)” value ([1]; 150 μM) was “highly cytotoxic” and the “cytotoxicity (cell viability)” value ([1]; 150, 50 and 10 μM) was “cytotoxic”.
